Measurements: patent publication US20160176880A1, “SUBSTITUTED IMIDAZO[1,2-A]PYRAZINECARBOXAMIDES AND USE THEREOF” (BAYER PHARMA AKTIENGESELLSCHAFT, priority 2013, published 2016)

Target: T1, recombinant guanylate cyclase reporter cell line (Rattus norvegicus, UniProt P19686+P20595)
T1 construct: expressed in transfected cells
T1 sequence (P19686 1-690): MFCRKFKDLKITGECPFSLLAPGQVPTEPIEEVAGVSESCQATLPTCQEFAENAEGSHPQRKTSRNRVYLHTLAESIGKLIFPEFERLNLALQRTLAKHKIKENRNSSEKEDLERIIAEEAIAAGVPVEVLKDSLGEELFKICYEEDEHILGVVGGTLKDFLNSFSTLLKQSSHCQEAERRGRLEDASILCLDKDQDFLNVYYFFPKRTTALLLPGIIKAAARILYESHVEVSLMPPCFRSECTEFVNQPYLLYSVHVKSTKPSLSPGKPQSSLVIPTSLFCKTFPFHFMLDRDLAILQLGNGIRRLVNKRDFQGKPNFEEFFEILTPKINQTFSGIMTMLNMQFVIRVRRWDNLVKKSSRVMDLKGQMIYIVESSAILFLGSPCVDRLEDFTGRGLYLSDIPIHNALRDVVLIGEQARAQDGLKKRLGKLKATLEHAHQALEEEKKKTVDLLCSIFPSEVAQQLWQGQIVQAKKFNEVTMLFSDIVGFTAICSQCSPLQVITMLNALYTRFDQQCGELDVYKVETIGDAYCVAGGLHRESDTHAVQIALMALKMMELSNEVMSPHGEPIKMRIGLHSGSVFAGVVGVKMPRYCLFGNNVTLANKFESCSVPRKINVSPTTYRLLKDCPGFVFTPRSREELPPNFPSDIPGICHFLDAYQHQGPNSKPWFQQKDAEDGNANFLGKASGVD
T1 sequence (P20595 1-619): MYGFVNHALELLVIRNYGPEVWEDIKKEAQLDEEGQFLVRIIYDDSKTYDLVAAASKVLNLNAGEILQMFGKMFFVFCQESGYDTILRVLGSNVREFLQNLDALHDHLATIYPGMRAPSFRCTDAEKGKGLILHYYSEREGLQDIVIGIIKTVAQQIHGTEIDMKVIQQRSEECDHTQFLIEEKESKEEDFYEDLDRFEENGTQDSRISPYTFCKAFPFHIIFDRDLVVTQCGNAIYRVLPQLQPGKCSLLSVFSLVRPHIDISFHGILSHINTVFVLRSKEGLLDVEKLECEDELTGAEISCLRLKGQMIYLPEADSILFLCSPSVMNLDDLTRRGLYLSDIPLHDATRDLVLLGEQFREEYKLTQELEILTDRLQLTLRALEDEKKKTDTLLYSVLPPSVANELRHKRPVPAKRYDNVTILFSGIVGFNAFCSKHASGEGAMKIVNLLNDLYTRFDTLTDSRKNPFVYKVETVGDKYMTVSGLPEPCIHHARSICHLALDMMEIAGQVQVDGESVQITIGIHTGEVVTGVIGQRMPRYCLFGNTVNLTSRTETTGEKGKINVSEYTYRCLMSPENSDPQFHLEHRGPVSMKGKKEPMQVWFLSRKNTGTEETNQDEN
Test: Effect on a recombinant guanylate cyclase reporter cell line
Assay type: cell-based
Details: MEC = minimum effective concentration; in some cases mean values for individual determinations
Experimental: B-2. Effect on a Recombinant Guanylate Cyclase Reporter Cell Line
The cellular action of the compounds of the invention is determined using a recombinant guanylate cyclase reporter cell line, as described in F. Wunder et al., Anal. Biochem. 339, 104-112 (2005).
Representative MEC values (MEC=minimum effective concentration) for the compounds of the invention are shown in the table below (in some cases as mean values for individual determinations): […]

| MEC [µM] | SMILES |
| --- | --- |
| 1 | COC(=O)[C@H]1CC[C@H](CNC(=O)c2c(C)nc3c(OCc4c(F)cccc4F)nc(C)cn23)CC1 [Example 8, Methyl trans-4-{[({8-[(2,6-difluorobenzyl)oxy]-2,6-dimethylimidazoyl}carbonyl)amino]methyl}cyclohexanecarboxylate] |
| 3 | Cc1cn2c(C(=O)N[C@H]3CCNC3=O)c(C)nc2c(OCc2c(F)cccc2F)n1 [Example 9, 8-[(2,6-Difluorobenzyl)oxy]-2,6-dimethyl-N-[(3S)-2-oxopyrrolidin-3-yl]imidazo[1,2-a]pyrazine-3-carboxamide] |
| 0.3 | Cc1cn2c(C(=O)Nc3ccnc4ccc(F)cc34)c(C)nc2c(OCc2c(F)cccc2F)n1 [Example 10, 8-[(2,6-Difluorobenzyl)oxy]-N-(6-fluoroquinolin-4-yl)-2,6-dimethylimidazo[1,2-a]pyrazine-3-carboxamide] |
| 3 | Cc1cn2c(C(=O)NC[C@H]3CC[C@H](C(=O)O)CC3)c(C)nc2c(OCc2c(F)cccc2F)n1.Cl [Example 11, trans-4-{[({8-[(2,6-Difluorobenzyl)oxy]-2,6-dimethylimidazo[1,2-a]pyrazin-3-yl}carbonyl)amino]methyl}cyclohexanecarboxylic acid hydrochloride] |
| 1 | Cc1cn2c(C(=O)NCCC3(O)CCCC3)c(C)nc2c(OCc2c(F)cccc2F)n1 [Example 12, 8-[(2,6-Difluorobenzyl)oxy]-N-[2-(1-hydroxycyclopentyl)ethyl]-2,6-dimethylimidazo[1,2-a]pyrazine-3-carboxamide] |
| 3 | Cc1cn2c(C(=O)NC3c4ccccc4CC3O)c(C)nc2c(OCc2c(F)cccc2F)n1 (centres unmarked) [Example 13, 8-[(2,6-difluorobenzyl)oxy]-N-(2-hydroxy-2,3-dihydro-1H-inden-1-yl)-2,6-dimethylimidazo[1,2-a]pyrazine-3-carboxamide] |
| 1 | CCC(N)(CC)CNC(=O)c1c(C)nc2c(OCc3c(F)cccc3F)nc(C)cn12 [Example 15, N-(2-amino-2-ethylbutyl)-8-[(2,6-difluorobenzyl)oxy]-2,6-dimethylimidazo[1,2-a]pyrazine-3-carboxamide] |
| 3 | Cc1cn2c(C(=O)NC3CC(C)(C)NC(C)(C)C3)c(C)nc2c(OCc2c(F)cccc2F)n1 [Example 16, 8-[(2,6-difluorobenzyl)oxy]-2,6-dimethyl-N-(2,2,6,6-tetramethylpiperidin-4-yl)imidazo[1,2-a]pyrazine-3-carboxamide] |
| 3 | Cc1cn2c(C(=O)Nc3c(C)nn(CCO)c3C)c(C)nc2c(OCc2c(F)cccc2F)n1 [Example 18, 8-[(2,6-difluorobenzyl)oxy]-N-[1-(2-hydroxyethyl)-3,5-dimethyl-1H-pyrazol-4-yl]-2,6-dimethylimidazo[1,2-a]pyrazine-3-carboxamide] |
| 3 | Cc1cn2c(C(=O)NCCN(C)C)c(C)nc2c(OCc2c(F)cccc2F)n1 [Example 19, 8-[(2,6-difluorobenzyl)oxy]-N-[2-(dimethylamino)ethyl]-2,6-dimethylimidazo[1,2-a]pyrazine-3-carboxamide] |
| 3 | Cc1cn2c(C(=O)NCc3ccccc3-c3cccnc3)c(C)nc2c(OCc2c(F)cccc2F)n1 [Example 21, 8-[(2,6-difluorobenzyl)oxy]-2,6-dimethyl-N-[2-(pyridin-3-yl)benzyl]imidazo[1,2-a]pyrazine-3-carboxamide] |
| 3 | Cc1cn2c(C(=O)NCCN3CCOCC3)c(C)nc2c(OCc2c(F)cccc2F)n1 [Example 22, 8-[(2,6-difluorobenzyl)oxy]-2,6-dimethyl-N-[2-(morpholin-4-yl)ethyl]imidazo[1,2-a]pyrazine-3-carboxamide] |
| 1 | Cc1cn2c(C(=O)Nc3c(C)nn(Cc4ccc(F)cc4)c3C)c(C)nc2c(OCc2c(F)cccc2F)n1 [Example 23, 8-[(2,6-difluorobenzyl)oxy]-N-[1-(4-fluorobenzyl)-3,5-dimethyl-1H-pyrazol-4-yl]-2,6-dimethylimidazo[1,2-a]pyrazine-3-carboxamide] |
| 3 | Cc1cn2c(C(=O)Nc3cnn(CC(F)(F)F)c3)c(C)nc2c(OCc2c(F)cccc2F)n1 [Example 24, 8-[(2,6-difluorobenzyl)oxy]-2,6-dimethyl-N-[1-(2,2,2-trifluoroethyl)-1H-pyrazol-4-yl]imidazo[1,2-a]pyrazine-3-carboxamide] |
| 3 | Cc1cn2c(C(=O)NCc3ncc[nH]3)c(C)nc2c(OCc2c(F)cccc2F)n1 [Example 25, 8-[(2,6-difluorobenzyl)oxy]-N-(1H-imidazol-2-ylmethyl)-2,6-dimethylimidazo[1,2-a]pyrazine-3-carboxamide] |
| 1 | Cc1cn2c(C(=O)Nc3c(C(F)(F)F)n[nH]c3C)c(C)nc2c(OCc2c(F)cccc2F)n1 [Example 27, 8-[(2,6-difluorobenzyl)oxy]-2,6-dimethyl-N-[5-methyl-3-(trifluoromethyl)-1H-pyrazol-4-yl]imidazo[1,2-a]pyrazine-3-carboxamide] |
| 1 | Cc1cn2c(C(=O)NCc3ccc(Cl)nc3)c(C)nc2c(OCc2c(F)cccc2F)n1 [Example 28, N-[(6-chloropyridin-3-yl)methyl]-8-[(2,6-difluorobenzyl)oxy]-2,6-dimethylimidazo[1,2-a]pyrazine-3-carboxamide] |
| 3 | Cc1cn2c(C(=O)Nc3cnn4ccccc34)c(C)nc2c(OCc2c(F)cccc2F)n1 [Example 30, 8-[(2,6-difluorobenzyl)oxy]-2,6-dimethyl-N-(pyrazolo[1,5-a]pyridin-3-yl)imidazo[1,2-a]pyrazine-3-carboxamide] |
| 1 | Cc1cn2c(C(=O)NCC3(O)CC3)c(C)nc2c(OCc2c(F)cccc2F)n1 [Example 32, 8-[(2,6-difluorobenzyl)oxy]-N-[(1-hydroxycyclopropyl)methyl]-2,6-dimethylimidazo[1,2-a]pyrazine-3-carboxamide] |
| 3 | Cc1cn2c(C(=O)NCCN(CC(F)F)C3CC3)c(C)nc2c(OCc2c(F)cccc2F)n1 [Example 33, N-{2-[cyclopropyl(2,2-difluoroethyl)amino]ethyl}-8-[(2,6-difluorobenzyl)oxy]-2,6-dimethylimidazo[1,2-a]pyrazine-3-carboxamide] |
| 3 | Cc1cn2c(C(=O)N[C@H]3CCOC3=O)c(C)nc2c(OCc2c(F)cccc2F)n1 [Example 34, 8-[(2,6-difluorobenzyl)oxy]-2,6-dimethyl-N-[(3S)-2-oxotetrahydrofuran-3-yl]imidazo[1,2-a]pyrazine-3-carboxamide] |
| 3 | CCC(CO)(CO)NC(=O)c1c(C)nc2c(OCc3c(F)cccc3F)nc(C)cn12 [Example 35, 8-[(2,6-difluorobenzyl)oxy]-N-[1-hydroxy-2-(hydroxymethyl)butan-2-yl]-2,6-dimethylimidazo[1,2-a]pyrazine-3-carboxamide] |
| 10 | Cc1cn2c(C(=O)NOCCO)c(C)nc2c(OCc2c(F)cccc2F)n1 [Example 44, 8-[(2,6-Difluorobenzyl)oxy]-N-(2-hydroxyethoxy)-2,6-dimethylimidazo[1,2-a]pyrazine-3-carboxamide] |
| 10 | Cc1cn2c(C(=O)NN3CCOCC3)c(C)nc2c(OCc2c(F)cccc2F)n1 [Example 45, 8-[(2,6-difluorobenzyl)oxy]-2,6-dimethyl-N-(morpholin-4-yl)imidazo[1,2-a]pyrazine-3-carboxamide] |
| 1.0 | Cc1nc2c(OCC3CCCCC3)nccn2c1C(=O)NCc1ccc(F)c(F)c1 [Example 47, 8-(Cyclohexylmethoxy)-N-(3,4-difluorobenzyl)-2-methylimidazo[1,2-a]pyrazine-3-carboxamide] |

| SMILES | MEC [µM] |
| --- | --- |
| Cc1cn2c(C(=O)NC3CC4CCCC(C3)N4C)c(C)nc2c(OCc2c(F)cccc2F)n1 (centres unmarked) [Example 36, 8-[(2,6-difluorobenzyl)oxy]-2,6-dimethyl-N-(9-methyl-9-azabicyclo[3.3.1]non-3-yl)imidazo[1,2-a]pyrazine-3-carboxamide] | 1 |
